Where a SMILES comes first, the peptide text is derived from it. Bridges are numbered along the chain shown (N, C = ends). Triazole bridges read from a SMILES are 1,4-linked. [ ]: non-standard residue; d: D form. Oic = O=C(O)[C@@H]1C[C@@H]2CCCC[C@@H]2N1; Dap(N3) = [N-]=[N+]=NC[C@H](N)C(=O)O; tBuAla = CC(C)(C)C[C@H](N)C(=O)O; Pen = CC(C)(S)[C@H](N)C(=O)O; Orn = NCCC[C@H](N)C(=O)O; Pra = C#CC[C@H](N)C(=O)O; Dab = NCC[C@H](N)C(=O)O; Dap = NC[C@H](N)C(=O)O; Ahx = NCCCCCC(=O)O; Sar = CNCC(=O)O
What was measured:
human MASP1 = human MASP1 (Homo sapiens (Human), UniProt P48740); assay: Biochemical human MASP1 assay (FRET substrate); conditions: Average IC50; recombinant human MASP1; read-out: human MASP1 IC50
Text: A truncated cDNA sequence of human MASP1 encoding the fragment corresponding to the amino acids 297-699 with a C-terminal His Tag and N-terminal Ig-kappa secretion signal (SEQ ID No: 2) was subcloned into the mammalian expression vector pcDNA3.1 (Invitrogen).
The MASP1 or MASP2 expression vectors were transfected into the HEK293 (ATCC No. CRL-1573) cell line using Lipofectamine LTX® Reagent (Thermo-Fischer), as described by the manufacturer. The mature form of the recombinant human MASP1 and MASP2 proteases were secreted into the culture medium. The MASP1 and MASP2 proteins were purified from the conditioned media by affinity chromatography on Ni-NTA Superflow resin (Qiagen) as described by the manufacturer.
2.2 Biochemical Human MASP1 Assay
Recombinant human MASP1 enzyme produced in the HEK 293 cells was diluted in the reaction buffer (50 mM HEPES pH 8,0; 100 mM NaCl; 0,01% CHAPS; 0.5 mM Gluthathione) to the concentration of 20 nM and 25 μl was transferred into each single well of 384-well white microtiter plate (Greiner Bio One 781075). 1 μl of the inhibitor compound solution (dissolved in DMSO, at the corresponding concentration) or pure DMSO as a control was added to the same wells. The enzymatic reaction was initiated by addition of 25 μl of 20 μM solution of the FRET substrate ABZ-[…]-Lys (Dnp)-NH2; (ABZ-2-aminobenzoyl; DNP 2,4-dinitrophenyl; custom synthesis by Jerini Peptide Technologies, Berlin) in the reaction buffer. The microtiter plate was incubated for 60-120 min at the temperature of 32 C. The increase of fluorescence intensity was measured in appropriate fluorescence plate reader (e.g. TECAN Ultra) using excitation wavelength of 320 nm and emission wavelength of 420 nm. IC50 values were calculated from percentage of inhibition of human MASP1 activity as a function of test compound concentration.

human MASP2 = human MASP2 (Homo sapiens (Human), UniProt O00187); assay: Biochemical human MASP2 assay (FRET substrate); conditions: Average IC50; recombinant human MASP2; read-out: human MASP2 IC50
Text: The MASP1 or MASP2 expression vectors were transfected into the HEK293 (ATCC No. CRL-1573) cell line using Lipofectamine LTX® Reagent (Thermo-Fischer), as described by the manufacturer. The mature form of the recombinant human MASP1 and M[…] were secreted into the culture medium. The MASP1 and M[…] were purified from the conditioned media by affinity chromatography on Ni-NTA Superflow resin (Qiagen) as described by the manufacturer. 2.3 Biochemical Human MASP2 Assay […] The enzymatic reaction was initiated by addition of 25 μl of 60 μM solution of the FRET substrate DABCYL-[…]; […] The microtiter plate was incubated for 60-120 min at the temperature of 32 C. The increase of fluorescence intensity was measured in appropriate fluorescence plate reader (e.g. TECAN Ultra) using excitation wavelength of 340 nm and emission wavelength of 490 nm. IC50 values were calculated from percentage of inhibition of human MASP2 activity as a function of test compound concentration.

human MASP1, sequence (P48740 other isoform, or with tags, fused parts or gaps): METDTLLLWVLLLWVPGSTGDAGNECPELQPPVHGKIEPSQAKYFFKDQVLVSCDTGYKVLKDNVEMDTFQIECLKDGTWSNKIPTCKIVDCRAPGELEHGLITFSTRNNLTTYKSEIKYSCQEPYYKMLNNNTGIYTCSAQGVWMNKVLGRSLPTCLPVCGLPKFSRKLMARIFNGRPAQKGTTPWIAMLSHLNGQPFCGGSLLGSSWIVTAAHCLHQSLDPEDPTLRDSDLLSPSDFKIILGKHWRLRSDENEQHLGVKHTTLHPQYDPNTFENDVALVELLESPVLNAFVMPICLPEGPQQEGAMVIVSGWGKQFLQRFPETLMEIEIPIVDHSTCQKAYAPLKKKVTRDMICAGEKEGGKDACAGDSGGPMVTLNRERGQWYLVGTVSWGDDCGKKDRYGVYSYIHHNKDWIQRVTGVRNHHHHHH
human MASP2, sequence (O00187 other isoform, or with tags, fused parts or gaps): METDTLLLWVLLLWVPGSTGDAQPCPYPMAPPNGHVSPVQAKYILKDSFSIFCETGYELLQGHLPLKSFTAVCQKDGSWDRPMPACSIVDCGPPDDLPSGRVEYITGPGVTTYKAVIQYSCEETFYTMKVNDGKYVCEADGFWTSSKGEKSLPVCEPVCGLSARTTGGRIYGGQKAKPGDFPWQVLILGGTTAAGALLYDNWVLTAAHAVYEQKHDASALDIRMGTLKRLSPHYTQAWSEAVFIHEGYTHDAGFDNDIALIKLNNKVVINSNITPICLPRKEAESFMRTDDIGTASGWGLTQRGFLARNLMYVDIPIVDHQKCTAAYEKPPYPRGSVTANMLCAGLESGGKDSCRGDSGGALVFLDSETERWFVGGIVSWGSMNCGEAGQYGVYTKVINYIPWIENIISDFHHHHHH

Row | SMILES | IC50 (human MASP1) [nM] | IC50 (human MASP2) [nM]
1 | CC[C@H](C)[C@@H]1NC(=O)CNC(=O)CN(C)C(=O)CCCCCNC(=O)CC[C@@H](C(N)=O)NC(=O)[C@@H]2CCCN2C(=O)[C@H]([C@@H](C)CC)NC(=O)[C@H]2NC(=O)[C@H]([C@@H](C)CC)NC(=O)[C@@H]3C[C@@H]4CCCC[C@@H]4N3C(=O)[C@@H]3CCCN3C(=O)[C@H](CC(C)C)NC(=O)[C@H](CO)NC(=O)[C@H](CCCNC(=N)N)NC(=O)[C@H](CO)NC(=O)[C@H](CSSC2(C)C)NC1=O [Example 76] ([Ahx][Sar]GICSRSLP[Oic]I[Pen]IPE-NH2; disulfide 5-13; lactam N-16) | 9.7 | 180
2 | CC[C@H](C)[C@@H]1NC(=O)[C@H](C)NC(=O)CN(C)C(=O)CCCCCNC(=O)CC[C@@H](C(N)=O)NC(=O)[C@@H]2CCCN2C(=O)[C@H]([C@@H](C)CC)NC(=O)[C@H]2NC(=O)[C@H]([C@@H](C)CC)NC(=O)[C@@H]3C[C@@H]4CCCC[C@@H]4N3C(=O)[C@@H]3CCCN3C(=O)[C@H](CC(C)C)NC(=O)[C@H](CO)NC(=O)[C@H](CCCNC(=N)N)NC(=O)[C@H](CO)NC(=O)[C@H](CSSC2(C)C)NC1=O [Example 77] ([Ahx][Sar]AICSRSLP[Oic]I[Pen]IPE-NH2; disulfide 5-13; lactam N-16) | 11 | 210
3 | CC[C@H](C)[C@@H]1NC(=O)[C@H](C)NC(=O)CNC(=O)CCCCCNC(=O)CC[C@@H](C(N)=O)NC(=O)[C@@H]2CCCN2C(=O)[C@H]([C@@H](C)CC)NC(=O)[C@H]2NC(=O)[C@H]([C@@H](C)CC)NC(=O)[C@@H]3C[C@@H]4CCCC[C@@H]4N3C(=O)[C@@H]3CCCN3C(=O)[C@H](CC(C)C)NC(=O)[C@H](CO)NC(=O)[C@H](CCCNC(=N)N)NC(=O)[C@H](CO)NC(=O)[C@H](CSSC2(C)C)NC1=O [Example 82] ([Ahx]GAICSRSLP[Oic]I[Pen]IPE-NH2; disulfide 5-13; lactam N-16) | 69 | 700
4 | CC[C@H](C)[C@@H]1NC(=O)[C@@H](C)NC(=O)CNC(=O)CCCCCNC(=O)CC[C@@H](C(N)=O)NC(=O)[C@@H]2CCCN2C(=O)[C@H]([C@@H](C)CC)NC(=O)[C@H]2NC(=O)[C@H]([C@@H](C)CC)NC(=O)[C@@H]3C[C@@H]4CCCC[C@@H]4N3C(=O)[C@@H]3CCCN3C(=O)[C@H](CC(C)C)NC(=O)[C@H](CO)NC(=O)[C@H](CCCNC(=N)N)NC(=O)[C@H](CO)NC(=O)[C@H](CSSC2(C)C)NC1=O [Example 84] ([Ahx]G[dA]ICSRSLP[Oic]I[Pen]IPE-NH2; disulfide 5-13; lactam N-16) | 15 | 87

Second part, the compound after the results:

Row | IC50 (human MASP1) [nM] | IC50 (human MASP2) [nM] | SMILES
5 | 49 | 540 | CC[C@H](C)[C@@H]1NC(=O)CNC(=O)[C@H](CCCN)NC(=O)[C@H]([C@@H](C)CC)NC(=O)[C@H]2NC(=O)[C@H]([C@@H](C)CC)NC(=O)[C@@H]3CCCN3C(=O)[C@@H]3CCCN3C(=O)[C@H](CC(C)(C)C)NC(=O)[C@H](CO)NC(=O)[C@H](CCCNC(=N)N)NC(=O)[C@H](CO)NC(=O)[C@H](CSSC2(C)C)NC1=O [Example 65, N-{3-[(5aS,11S,14S,17S,20S,23R,26S,32S,35S,38R,41S,43aS)-32-(3-aminopropyl)-26,35,41-tri[(2S)-butan-2-yl]-11-(2,2-dimethylpropyl)-14,20-bis(hydroxymethyl)-44,44-dimethyl-5,10,13,16,19,22,25,28,31,34,37,40,43-tridecaoxodotetracontahydro-5H-23,38-(methanodithiomethano)dipyrrolo[1,2-a:1′,2′-d][1,4,7,10,13,16,19,22,25,28,31,34,37]tridecaazacyclononatriacontin-17-yl]propyl}guanidine] (cyclo(CSRS[tBuAla]PPI[Pen]I[Orn]GI); disulfide 1-9)
6 | 21 | 24 | CC[C@H](C)[C@@H]1NC(=O)[C@@H](N)CCCNC(=O)[C@@H]2CCCN2C(=O)[C@H]([C@@H](C)CC)NC(=O)[C@H]2NC(=O)[C@H]([C@@H](C)CC)NC(=O)[C@@H]3CCCN3C(=O)[C@@H]3CCCN3C(=O)[C@H](CC(C)(C)C)NC(=O)[C@H](CO)NC(=O)[C@H](CCCNC(=N)N)NC(=O)[C@H](CO)NC(=O)[C@H](CSSC2(C)C)NC1=O [Example 71, N-{3-[(6S,9S,12S,15S,18R,21S,24S,29aS,35S,38R,41S,43aS,48aS)-24-amino-21,35,41-tri[(2S)-butan-2-yl]-6-(2,2-dimethylpropyl)-9,15-bis(hydroxymethyl)-49,49-dimethyl-5,8,11,14,17,20,23,29,34,37,40,43,48-tridecaoxohexatetracontahydro-1H,5H-18,38-(methanodithiomethano)tripyrrolo[2,1-c:2′,1′-o:2″,1″-r][1,4,7,10,13,16,19,22,25,28,31,34,37]tridecaazacyclodotetracontin-12-yl]propyl}guanidine] (H-[Orn]ICSRS[tBuAla]PPI[Pen]IP; lactam 1-C; disulfide 3-11)
7 | 42 | 430 | CC[C@H](C)[C@@H]1NC(=O)[C@H](CCN)NC(=O)[C@H](CN)NC(=O)[C@H]([C@@H](C)CC)NC(=O)[C@H]2NC(=O)[C@H]([C@@H](C)CC)NC(=O)[C@@H]3CCCN3C(=O)[C@@H]3CCCN3C(=O)[C@H](CC(C)(C)C)NC(=O)[C@H](CO)NC(=O)[C@H](CCCNC(=N)N)NC(=O)[C@H](CO)NC(=O)[C@H](CSSC2(C)C)NC1=O [Example 73] (cyclo(CSRS[tBuAla]PPI[Pen]I[Dap][Dab]I); disulfide 1-9)
8 | 14 | 160 | CC[C@H](C)[C@@H]1NC(=O)[C@H](C)NC(=O)CCCCCNC(=O)CC[C@@H](C(N)=O)NC(=O)[C@@H]2CCCN2C(=O)[C@H]([C@@H](C)CC)NC(=O)[C@H]2NC(=O)[C@H]([C@@H](C)CC)NC(=O)[C@@H]3C[C@@H]4CCCC[C@@H]4N3C(=O)[C@@H]3CCCN3C(=O)[C@H](CC(C)C)NC(=O)[C@H](CO)NC(=O)[C@H](CCCNC(=N)N)NC(=O)[C@H](CO)NC(=O)[C@H](CSSC2(C)C)NC1=O [Example 74] ([Ahx]AICSRSLP[Oic]I[Pen]IPE-NH2; disulfide 4-12; lactam N-15)
9 | 22 | 45 | CC[C@H](C)[C@@H]1NC(=O)[C@@H](C)NC(=O)CCCCCNC(=O)CC[C@@H](C(N)=O)NC(=O)[C@@H]2CCCN2C(=O)[C@H]([C@@H](C)CC)NC(=O)[C@H]2NC(=O)[C@H]([C@@H](C)CC)NC(=O)[C@@H]3C[C@@H]4CCCC[C@@H]4N3C(=O)[C@@H]3CCCN3C(=O)[C@H](CC(C)C)NC(=O)[C@H](CO)NC(=O)[C@H](CCCNC(=N)N)NC(=O)[C@H](CO)NC(=O)[C@H](CSSC2(C)C)NC1=O [Example 79] ([Ahx][dA]ICSRSLP[Oic]I[Pen]IPE-NH2; disulfide 4-12; lactam N-15)
10 | 18 | 230 | CC[C@H](C)[C@@H]1NC(=O)[C@H](C)NC(=O)CNC(=O)[C@@H](N)Cn2cc(nn2)C[C@@H](C(N)=O)NC(=O)[C@@H]2CCCN2C(=O)[C@H]([C@@H](C)CC)NC(=O)[C@@H]2CSSC[C@H](NC1=O)C(=O)N[C@@H](CO)C(=O)N[C@@H](CCCNC(=N)N)C(=O)N[C@@H](CO)C(=O)N[C@@H](CC(C)(C)C)C(=O)N1CCC[C@H]1C(=O)N1CCC[C@H]1C(=O)N[C@@H]([C@@H](C)CC)C(=O)N2 [Example 81] (H-[Dap(N3)]GAICSRS[tBuAla]PPICIP[Pra]-NH2; triazole 1-16; disulfide 5-13)
11 | 18 | 91 | CC[C@H](C)[C@@H]1NC(=O)CNC(=O)CCCCCNC(=O)CC[C@@H](C(N)=O)NC(=O)[C@@H]2CCCN2C(=O)[C@H]([C@@H](C)CC)NC(=O)[C@H]2NC(=O)[C@H]([C@@H](C)CC)NC(=O)[C@@H]3C[C@@H]4CCCC[C@@H]4N3C(=O)[C@@H]3CCCN3C(=O)[C@H](CC(C)C)NC(=O)[C@H](CO)NC(=O)[C@H](CCCNC(=N)N)NC(=O)[C@H](CO)NC(=O)[C@H](CSSC2(C)C)NC1=O [Example 83] ([Ahx]GICSRSLP[Oic]I[Pen]IPE-NH2; disulfide 4-12; lactam N-15)

— patent US20240010684A1, “MASP INHIBITORY COMPOUNDS AND USES THEREOF” (BAYER AKTIENGESELLSCHAFT, priority 2020, published 2024)
